Source: patent publication US11351154B2, “Molecular genetic approach to treatment and diagnosis of alcohol and drug dependence” (University of Virginia Patent Foundation, priority 2011, dated 2022)

How the values were obtained:
[1] = test system: subjects of the ondansetron clinical trial (251 subjects); test: CART decision-tree subgroup analysis of ondansetron treatment effect on percentage heavy drinking; type: in vivo, human; details: for E(Y|T=1), Y=phd base90-mean(phdweek): T=1(ondansetron)
Excerpt: A decision tree is a structure that can be used to divide up a large collection of records into successively smaller sets of records by applying a sequence of simple decision rules. One advantage of decision tree is that the results can be easily interpreted. CART is a popular decision tree algorithm first published in Breiman et al 1984. CART starts by dividing data into 2 sub-groups (child nodes) that are homogeneous with respect to a particular target variable, in our case the target variable is the binary class label Z. By doing exhaustive search over all possible cutoffs for all possible candidate covariates, sub-groups are formed by identifying optimal split point for the optimal candidate covariate. Repeat the process recursively at each child node until one of the stopping criteria is met. In the end, CART prunes tree to smaller optimal size using cross-validation. After the final tree is determined, the class label (treatment) for “new subjects” is given by running them down the tree and identifying which terminal node they belong. The class label of the terminal node is formed by majority vote of cases in this node, that is if the proportion of class 1 in this node p>0.5, then the class label is 1, otherwise is 0. Let t denote the node, which is a region of the covariates space. A Split denoted by s on a numeric variable Xj take the form Xj<xji, where xji is a cut-off selected by trying all values of Xj in the data set as candidate split points. s splits the node t into left and right daughter nodes […]. The impurity function is used as a measure of node homogeneity. To calculate the impact of a split, compute increase in purity (or reduction in impurity) and choose a split that gives maximal value over all possible splits as the best splitter for node t. Gini criterion is the usual splitting criteria chosen by CART for categorical target. […] The full tree would not do the best job when applied to new dataset. The CART identifies candidate sub-trees through a process of repeated pruning. CART relies on a concept called adjusted error rate, AERα(T)=error rate(T)+α node count(T). This is a measure that increases each tree(T)'s misclassification rate on the training set by imposing a complexity penalty based on the number of final nodes in the tree. One can form a sequence of sub-trees of the full tree by varying the penalty value (cost complexity parameter), α and determining the tree that minimizes the adjusted error rate. After deleting the subjects with missing data, 251 subjects were included in the data analysis. Y=phd […]=(phd base90,Onage,[…], . . . , […]). There are total 21 genotypes. T=1(ondansetron) and T=0(placebo). The goal is to find a subgroup defined by X where the treatment effect is significant. After transforming this problem to a classification problem. CART was used to find the best subgroup with decision tree form.

[2] = test system: individuals in alcohol trials; details: naltrexone dose of 50 mg/day; cited from earlier work
[3] = test system: individuals who take topiramate; details: cited from earlier work

## Cc1nccn1CC1CCc2c(c3ccccc3n2C)C1=O (centres unmarked) [OND, 9-methyl-3-[(2-methyl-1H-imidazol-1-yl)methyl]-1,2,3,9-tetrahydrocarbazol-4-one]
[1]; overall sample, 251 subjects
  E(Y|T=1), Y=phd base90-mean(phdweek): 32.1%
[1]; overall sample, ondansetron minus placebo
  overall sample mean difference E(Y|T=1)−E(Y|T=0): 0.2%
[1]; subgroup gen1=I (rs150226=AA or AG), 42 subjects
  E(Y|T=1), Y=phd base90-mean(phdweek): 50.9%
[1]; subgroup gen1=I (rs150226=AA or AG), ondansetron minus placebo
  sample mean difference E(Y|T=1)−E(Y|T=0): 28.7%
[1]; subgroup gen2: rs1150226=GG, rs1176719=AA or AG, phd base90≥0.8663, 49 subjects
  E(Y|T=1), Y=phd base90-mean(phdweek): 37.6%
[1]; subgroup gen2: rs1150226=GG, rs1176719=AA or AG, phd base90≥0.8663, ondansetron minus placebo
  sample mean difference E(Y|T=1)−E(Y|T=0): 15.0%
[1]; subgroup gen (gen1 + gen2), 91 subjects
  E(Y|T=1), Y=phd base90-mean(phdweek): 43.0%
[1]; subgroup gen (gen1 + gen2), ondansetron minus placebo
  sample mean difference E(Y|T=1)−E(Y|T=0): 20.6%

## Cl.O=C1CC[C@@]2(O)[C@H]3Cc4ccc(O)c5c4[C@@]2(CCN3CC2CC2)[C@H]1O5 [naltrexone, 17-(Cyclopropylmethyl)-4,5a-epoxy-3,14-dihydroxymorphinan-6-one hydrochloride]
[2]
  individuals unable to tolerate the dose: about 15%

## CC1(C)O[C@@H]2[C@@H](CO[C@@]3(COS(N)(=O)=O)OC(C)(C)O[C@@H]23)O1 [topiramate, 2,3:4,5-Bis-O-(1-methylethylidene)-beta-D-fructopyranose sulfamate]
[3]; general population
  cognitive impairment reported, share of individuals: 2.4%
[3]; substance abuse field
  occurrence rate of cognitive impairment: about 18.7%
